Entries after “also recorded” stand apart in the source; their conditions may differ.
How the values were obtained:
[1] = system: citric acid-induced cough; assay: Citric acid-induced cough in guinea pigs (antitussive activity); type: in vivo, guinea pig; conditions: for cough episodes (result in words): citric acid-induced cough; for rank order of antitussive potency: guinea pig citric acid cough model; for % Cough Episode (Composed with Vehicle Control): mean ± SEM; for ED50 value (antitussive): comparative study compound A vs codeine (positive control), i.p.
Description: In another embodiment, a method is provided for screening for a substance that inhibits coughing activity. For example, a guinea pig is challenged with 0.5 M citric acid. Those producing more than 10 cough episodes during a first citric acid challenge are selected to be sensitive to citric acid induction and are used for further antitussive tests. The number of coughs and the cough latency in the first challenge animal are recorded as the basal level control. After 48 hours of recovery, the sensitive guinea pigs are selected and are randomly divided into different group, and then pretreated with either intraperitoneal or oral administration. For the intraperitoneal administration, the administration can be of a aqueous extract (0.3-3 g/kg), a total alkaloid extract (25-150 mg/kg), an alkaloid, for example compound A (10, 30, 50, and 100 mg/kg), or compounds B, C, D, F, G, H (133 μmol/kg), for 30 min, or of an extract suspected of having antitussive activity. For the oral administration, the administration can be of compound A or E (400 μmol/kg) for 60 min, or of an extract suspected of having antitussive activity. A second citric acid exposure is then conducted. Antitussive activity is evaluated in each treated animal as the reduction of coughs and the increase of cough latency, as compared to the basal level control.
The method previously described by Gallico et al. (1994) was adopted with the following modifications. Unrestrained guinea pigs were placed individually in a hermetically sealed transparent Perspex chamber (25 cm×12 cm×12 cm), and exposed to a nebulized aqueous solution of 0.5 M citric acid for 8 min. An ultrasonic nebulizer was used (OMRON NE-U12, Tokyo, Japan) that produced an aerosol with particles having a mass median diameter of 1˜5 μm. Approximately 0.5 ml of 0.5 M citric acid solution was nebulized per minute. During the exposure, the guinea pigs were continuously monitored by a trained observer. The episodes and latency of coughing in 8 min were detected and counted by the observer. Cough sounds were recorded concurrently and amplified via a microphone placed in the chamber. The sound waves were analyzed by a personal computer by using Cool Edit 2000 software (Syntrillium, Phenix, USA). Therefore, cough counting was performed based on both acoustic data and human observations, and in this manner the reduction or inhibition of coughing (i.e., antitussive activity) was measured.
The guinea pigs were first challenged with 0.5 M citric acid. Those producing more than 10 cough episodes during the first citric acid challenge were selected to be sensitive to citric acid induction and were used for the further antitussive tests. The number of coughs and the cough latency in the first challenge were recorded as the basal level control. After 48 hours of recovery, the sensitive guinea pigs were selected and were randomly divided into different groups with at least four guinea pigs in each group, and then pretreated with intraperitoneal administration of the aqueous extract (0.3-3 g/kg), the total alkaloid extract (25-150 mg/kg), compound A (10, 30, 50, and 100 mg/kg), and compounds B, C, D, F, G, H (133 μmol/kg), for 30 min before the second citric acid exposure. Antitussive activity was evaluated in each treated animal as the reduction of coughs and the increase of cough latency, as compared to the basal level control. Furthermore, the same antitussive test was also performed with oral administration of compounds A and E (400 μmol/kg). In addition, as a positive control, the antitussive activity of codeine (5, 10 and 30 mg/kg, i.p.) was also determined in a parallel study.

[2] = system: citric acid-induced cough; assay: Effect of receptor antagonists on the antitussive activity of compound A in vivo; design: species or system guinea pig; conditions: mean ± SEM
Description: Further studies were conducted for the delineation of the mechanisms of antitussive activity produced by the representative Stemona alkaloid, compound A. Similarly, the sensitive animals were selected after the first citric acid challenge and allowed to recover for 24 hours. During the second challenge, animals were treated with a subcutaneous injection of different antagonists at different times prior to intraperitoneal administration of compound A (50 or 100 mg/kg). The antagonists examined included SCH 50911 (GABAB receptor antagonist) with a 40 min pretreatment at a dose of 10 mg/kg, WAY-100635 (5-HT1A receptor antagonist) with a 60 min pretreatment at a dose of 1 mg/kg, and haloperidol (Dopamine, D2 receptor antagonist) with a 45 min pretreatment at a dose of 1 mg/kg. In addition, naloxone (nonselective opioid receptor antagonist) was administered subcutaneously at a dose of 5 mg/kg at 20 min after intraperitoneal administration of compound A (30 and 100 mg/kg). The effects of these antagonists on the antitussive activity of compound A were assessed by comparison of the changes in cough episodes and cough latency between animal groups administrated with compound A alone and concurrent administration of compound A and each antagonist tested. Furthermore, in a parallel study, the same treatment with naloxone was also conducted in the animals pretreated with intraperitoneal administration of codeine (30 mg/kg) for the positive control.

δ1-opioid receptor = target: T1, δ1-opioid receptor (Rattus norvegicus, UniProt P33533); assay: Radiolabeled ligand binding assay, [3H]Deltorphin; conditions: 10 μM, Opioid δ1, Rat forebrain, [3H]Deltrophin
T1 construct: Rat forebrain; tissue Novascreen Biosciences (contract assay); host or cells: rat forebrain
Description: (§1) The representative Stemona alkaloid, compound A, was subjected to the following primary receptor binding assays. The standard radiolabeled ligand binding experiments were performed at the concentration of 10 μM in duplicate by Novascreen Biosciences Crop. (7170 Standard Drive, Hanover, Md. 21076, USA). The tested receptors included all currently well-known receptors involved in producing the antitussive activity, for example, [^3H]Deltorphin (δ1-opioid receptor), [^3H]Naltrindole (δ2-opioid receptor), [^3H]DAMGO (μ-opioid receptor), [^3H]U69593 (κ1-opioid receptor), […] (GABAB receptor), [^3H]8-OH-DPAT (5HT1A receptor), and […] (Dopamine D2-receptor). […] Therefore, the results obtained from both in vivo and in vitro studies confirmed that the antitussive activity of all five effective novel Stemona alkaloids and neotuberostemonine are not involved in opiate receptor pathways.

δ2-opioid receptor = δ2-opioid receptor (Homo sapiens, UniProt P41143); assay: Radiolabeled ligand binding assay, [3H]Naltrindole; conditions: 10 μM, Opioid δ2, Human recombinant
Description: as §1

κ1-opioid receptor = target: T2, κ1-opioid receptor (Cavia porcellus, UniProt P41144); assay: Radiolabeled ligand binding assay, [3H]U-69593; conditions: 10 μM, Opioid κ, Guinea pig cerebellum
T2 construct: Novascreen Biosciences (contract assay)
Description: as §1

μ-opioid receptor = target: T3, μ-opioid receptor (Rattus norvegicus, UniProt P33535); assay: Radiolabeled ligand binding assay, [3H]DAMGO; conditions: 10 μM, Rat forebrain
T3 construct: Novascreen Biosciences (contract assay)
Description: as §1

GABAB receptor = target: T4, GABAB receptor (Rattus norvegicus, UniProt Q9Z0U4); assay: Radiolabeled ligand binding assay, [3H]CGP 54626A; conditions: 10 μM, Rat cortex
T4 construct: Novascreen Biosciences (contract assay)
Description: as §1

5HT1A receptor = assay: Radiolabeled ligand binding assay, [3H]8-OH-DPAT; conditions: 10 μM, Bovine hippocampus
Description: as §1

Dopamine D2-receptor = assay: Radiolabeled ligand binding assay, [3H]Glibenclamide; design: species or system Rat; key to Affinity: ± indicates slight but not significant inhibition on ligand binding; conditions: 10 μM, Dopamine D2, Rate striatum
Description: as §1

[3] = system: all receptors examined (opioid δ1, δ2, κ, μ, GABAB, 5-HT1A, Dopamine D2); assay: In vitro receptor binding assays, summary over all receptors examined; conditions: 10 μM, radiolabeled ligand binding
Description: as §1

[4] = ip, 133 μmol/kg, 30 min before second citric acid exposure, guinea pig
[5] = po, 400 μmol/kg, 60 min before second citric acid exposure, guinea pig

T4 sequence (Q9Z0U4 17-960 limits assumed): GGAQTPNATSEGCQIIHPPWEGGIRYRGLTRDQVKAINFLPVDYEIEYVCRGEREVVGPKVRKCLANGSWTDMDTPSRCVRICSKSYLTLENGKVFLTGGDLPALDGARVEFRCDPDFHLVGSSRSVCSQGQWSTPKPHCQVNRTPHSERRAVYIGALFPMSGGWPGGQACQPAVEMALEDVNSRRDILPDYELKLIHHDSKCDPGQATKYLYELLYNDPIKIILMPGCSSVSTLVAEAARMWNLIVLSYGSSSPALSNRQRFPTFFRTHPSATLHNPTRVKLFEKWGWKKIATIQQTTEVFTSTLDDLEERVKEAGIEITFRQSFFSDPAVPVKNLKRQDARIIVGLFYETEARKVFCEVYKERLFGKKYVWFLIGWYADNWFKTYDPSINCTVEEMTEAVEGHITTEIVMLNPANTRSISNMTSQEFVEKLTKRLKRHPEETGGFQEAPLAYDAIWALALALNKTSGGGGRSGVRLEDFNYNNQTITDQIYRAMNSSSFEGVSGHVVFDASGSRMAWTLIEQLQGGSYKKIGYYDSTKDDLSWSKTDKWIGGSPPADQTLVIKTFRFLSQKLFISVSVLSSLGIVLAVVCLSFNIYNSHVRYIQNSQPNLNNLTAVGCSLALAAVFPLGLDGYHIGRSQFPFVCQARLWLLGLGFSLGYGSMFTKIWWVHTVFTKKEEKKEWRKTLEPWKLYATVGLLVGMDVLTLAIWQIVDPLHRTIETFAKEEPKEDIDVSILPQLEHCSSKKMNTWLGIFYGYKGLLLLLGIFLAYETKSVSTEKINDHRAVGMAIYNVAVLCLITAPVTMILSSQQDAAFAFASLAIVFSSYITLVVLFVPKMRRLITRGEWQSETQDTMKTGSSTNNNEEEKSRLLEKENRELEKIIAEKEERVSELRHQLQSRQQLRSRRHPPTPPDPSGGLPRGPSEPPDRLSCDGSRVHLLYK
T4 sequence (O88871 41-940 partner): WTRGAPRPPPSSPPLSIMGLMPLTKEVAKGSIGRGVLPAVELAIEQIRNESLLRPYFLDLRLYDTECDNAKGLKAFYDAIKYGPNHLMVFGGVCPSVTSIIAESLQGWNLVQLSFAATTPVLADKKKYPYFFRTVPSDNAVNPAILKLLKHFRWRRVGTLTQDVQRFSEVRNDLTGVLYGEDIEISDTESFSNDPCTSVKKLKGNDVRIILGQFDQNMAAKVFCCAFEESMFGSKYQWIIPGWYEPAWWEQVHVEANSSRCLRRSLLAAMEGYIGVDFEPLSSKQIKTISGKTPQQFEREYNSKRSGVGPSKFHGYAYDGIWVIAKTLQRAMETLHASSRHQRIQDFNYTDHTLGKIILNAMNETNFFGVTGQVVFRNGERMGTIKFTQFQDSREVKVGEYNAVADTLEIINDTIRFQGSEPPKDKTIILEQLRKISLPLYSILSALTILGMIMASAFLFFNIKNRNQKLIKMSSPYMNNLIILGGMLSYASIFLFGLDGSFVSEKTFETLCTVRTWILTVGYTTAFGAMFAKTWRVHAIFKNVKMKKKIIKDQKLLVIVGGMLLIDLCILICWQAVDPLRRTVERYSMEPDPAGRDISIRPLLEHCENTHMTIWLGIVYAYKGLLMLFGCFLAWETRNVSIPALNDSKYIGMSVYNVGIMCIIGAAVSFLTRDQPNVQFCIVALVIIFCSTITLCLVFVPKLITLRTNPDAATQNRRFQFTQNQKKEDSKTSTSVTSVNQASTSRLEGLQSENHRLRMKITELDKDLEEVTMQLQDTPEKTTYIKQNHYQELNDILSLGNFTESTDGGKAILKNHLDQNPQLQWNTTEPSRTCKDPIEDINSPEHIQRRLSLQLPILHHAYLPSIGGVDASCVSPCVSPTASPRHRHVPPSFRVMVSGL
T1 sequence (P33533 whole entry): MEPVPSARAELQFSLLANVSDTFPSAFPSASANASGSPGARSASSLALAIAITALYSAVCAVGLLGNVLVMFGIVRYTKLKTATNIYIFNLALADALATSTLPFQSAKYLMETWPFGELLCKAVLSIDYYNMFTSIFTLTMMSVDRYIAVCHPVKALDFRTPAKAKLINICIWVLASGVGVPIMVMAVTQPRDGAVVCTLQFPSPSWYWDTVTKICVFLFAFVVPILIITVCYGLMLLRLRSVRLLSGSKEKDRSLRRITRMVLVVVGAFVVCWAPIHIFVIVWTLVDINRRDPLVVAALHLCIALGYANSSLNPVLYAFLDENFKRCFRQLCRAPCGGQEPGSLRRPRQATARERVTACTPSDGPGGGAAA
T3 sequence (P33535 whole entry): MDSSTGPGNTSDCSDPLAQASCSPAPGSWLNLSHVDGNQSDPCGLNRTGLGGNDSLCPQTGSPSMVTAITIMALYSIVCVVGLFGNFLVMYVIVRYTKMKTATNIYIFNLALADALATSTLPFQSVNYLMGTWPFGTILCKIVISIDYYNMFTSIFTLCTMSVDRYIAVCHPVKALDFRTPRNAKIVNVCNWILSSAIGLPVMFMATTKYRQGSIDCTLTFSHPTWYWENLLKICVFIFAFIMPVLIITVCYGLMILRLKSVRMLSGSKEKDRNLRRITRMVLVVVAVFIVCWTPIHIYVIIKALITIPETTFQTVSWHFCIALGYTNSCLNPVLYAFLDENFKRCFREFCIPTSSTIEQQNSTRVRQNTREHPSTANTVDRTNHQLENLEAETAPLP
T2 sequence (P41144 whole entry): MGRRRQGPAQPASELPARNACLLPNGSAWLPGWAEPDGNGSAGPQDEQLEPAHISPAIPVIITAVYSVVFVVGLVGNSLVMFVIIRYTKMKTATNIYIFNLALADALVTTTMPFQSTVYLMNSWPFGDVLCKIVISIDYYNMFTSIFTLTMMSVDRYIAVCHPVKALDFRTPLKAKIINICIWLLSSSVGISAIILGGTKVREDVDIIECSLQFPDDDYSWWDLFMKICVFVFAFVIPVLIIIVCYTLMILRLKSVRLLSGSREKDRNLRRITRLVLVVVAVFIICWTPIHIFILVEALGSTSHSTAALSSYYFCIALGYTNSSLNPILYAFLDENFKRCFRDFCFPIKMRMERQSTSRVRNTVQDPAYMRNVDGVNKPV
Chain of δ2-opioid receptor (P41143 whole entry): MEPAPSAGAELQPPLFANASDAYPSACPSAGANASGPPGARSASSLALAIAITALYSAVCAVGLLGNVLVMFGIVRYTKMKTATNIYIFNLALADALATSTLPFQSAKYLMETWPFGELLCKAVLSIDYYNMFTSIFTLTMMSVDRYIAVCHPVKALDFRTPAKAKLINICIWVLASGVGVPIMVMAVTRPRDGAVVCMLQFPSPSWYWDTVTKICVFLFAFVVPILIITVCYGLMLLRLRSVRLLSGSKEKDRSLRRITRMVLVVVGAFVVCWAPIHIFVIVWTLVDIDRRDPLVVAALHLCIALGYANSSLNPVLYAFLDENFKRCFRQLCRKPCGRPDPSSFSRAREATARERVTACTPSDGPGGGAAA

## CC[C@@H]1[C@H]2CCCCN3CC[C@@H]([C@H]4[C@@H]1OC(=O)[C@H]4C)[C@@H]23 [Compound D, Neostenine]
[1]; guinea pig
  cough episodes (result in words): significantly inhibited cough episodes in a dose-dependent manner
[1]
  rank order of antitussive potency: A=D>C≈F≈H≈B
[1]; [4]
  % Cough Episode (Composed with Vehicle Control): 29.9 ± 8.3 (ip) %

## CC[C@@H]1[C@H]2CCCCN3CC[C@@H]([C@H]4[C@@H]1OC[C@H]4C)[C@@H]23 [Compound H, Neostenine-ether]
[1]; guinea pig
  cough episodes (result in words): marked reduction of cough episodes
[1]
  rank order of antitussive potency: A=D>C≈F≈H≈B
[1]; [4]
  % Cough Episode (Composed with Vehicle Control): 54.4 ± 10.6 (ip) %

## Neostenine-acid [Compound G]
[1]; [4]
  % Cough Episode (Composed with Vehicle Control): 104.5 ± 20.4 (ip) %

## CC[C@@H]1[C@H]2CCCCN3[C@H]2[C@@H](C[C@H]3[C@@H]2C[C@H](C)C(=O)O2)[C@H]2[C@@H]1OC(=O)[C@H]2C [Compound A, Neotuberostemonine]
[1]; guinea pig
  cough episodes (result in words): inhibited citric acid-induced cough in a dose-dependent manner; also recorded: significantly inhibited cough episodes in a dose-dependent manner
  ED50 value (antitussive): comparable
[1]; doses of 50 and 100 mg/kg, intraperitoneal, guinea pig
  cough latency: significantly increased
[1]
  rank order of antitussive potency: A=D>C≈F≈H≈B
[1]; [4]
  % Cough Episode (Composed with Vehicle Control): 16.1 ± 7.3%
[1]; [5]
  % Cough Episode (Composed with Vehicle Control): 21.7 ± 8.9%
[2]; with Haloperidol (Dopamine D2 antagonist) 1 mg/kg sc, 45 min pretreatment, compound A ip 50 or 100 mg/kg
  % Antitussive Activity of Compound A: 115.21 ± 7.05%
[2]; with Naloxone (nonselective opioid antagonist) 5 mg/kg sc 20 min after compound A ip (30 and 100 mg/kg)
  % Antitussive Activity of Compound A: 86.51 ± 11.57%
[2]; with SCH 50911 (GABAB antagonist) 10 mg/kg sc, 40 min pretreatment, compound A ip 50 or 100 mg/kg
  % Antitussive Activity of Compound A: 83.25 ± 16.73%
[2]; with WAY-100635 (5-HT1A antagonist) 1 mg/kg sc, 60 min pretreatment, compound A ip 50 or 100 mg/kg
  % Antitussive Activity of Compound A: 100.50 ± 1.67%
δ1-opioid receptor; duplicate
  % Inhibition of Ligand Binding (average): 5.95%
δ1-opioid receptor
  Affinity: No
δ2-opioid receptor
  Affinity: No
δ2-opioid receptor; duplicate
  % Inhibition of Ligand Binding (average): 8.32%
κ1-opioid receptor
  Affinity: No
κ1-opioid receptor; duplicate
  % Inhibition of Ligand Binding (average): 14.40%
μ-opioid receptor
  Affinity: No
μ-opioid receptor; duplicate
  % Inhibition of Ligand Binding (average): 7.37%
GABAB receptor
  Affinity: No
GABAB receptor; duplicate
  % Inhibition of Ligand Binding (average): 8.06%
5HT1A receptor
  Affinity: No
5HT1A receptor; duplicate
  % Inhibition of Ligand Binding (average): −18.42%
Dopamine D2-receptor
  Affinity: ±
Dopamine D2-receptor; duplicate
  % Inhibition of Ligand Binding (average): 33.39%
[3]
  affinity to all receptors examined (in words): did not show any affinity

## COc1ccc2c3c1O[C@H]1[C@@H](O)C=C[C@H]4[C@@H](C2)N(C)CC[C@@]341 [codeine, reference compound]
[1]; guinea pig
  ED50 value (antitussive): comparable

## CC[C@H]1[C@H]2OC(=O)[C@@H](C)[C@H]2c2cc([C@H]3C[C@H](C)C(=O)O3)n3c2[C@H]1CCCC3 [Compound E, Epibisdehydrotuberostemonine J]
[1]; [5]
  % Cough Episode (Composed with Vehicle Control): 136.8 ± 25.6 (po) %

## Neostenine-diol [Compound F]
[1]; guinea pig
  cough episodes (result in words): marked reduction of cough episodes
[1]
  rank order of antitussive potency: A=D>C≈F≈H≈B
[1]; [4]
  % Cough Episode (Composed with Vehicle Control): 62.2 ± 10.8 (ip) %

## CC[C@@H]1[C@H]2CCCCN3[C@@H]2[C@@H](C[C@H]3[C@@H]2C[C@H](C)C(=O)O2)[C@H]2[C@@H]1OC(=O)[C@H]2C [Compound C, Tuberostemonine H]
[1]; guinea pig
  cough episodes (result in words): marked reduction of cough episodes
[1]
  rank order of antitussive potency: A=D>C≈F≈H≈B
[1]; [4]
  % Cough Episode (Composed with Vehicle Control): 50.7 ± 16.6 (ip) %

## CC[C@@H]1[C@@H]2CCCCN3[C@@H]2[C@@H](C[C@H]3[C@@H]2C[C@H](C)C(=O)O2)[C@H]2[C@@H]1OC(=O)[C@H]2C [Compound B, Tuberostemonine J]
[1]; guinea pig
  cough episodes (result in words): marked reduction of cough episodes
[1]
  rank order of antitussive potency: A=D>C≈F≈H≈B
[1]; [4]
  % Cough Episode (Composed with Vehicle Control): 76.3 ± 14.7 (ip) %

— patent publication US6992078B2, “Plant extracts and alkaloids having antitussive activity” (The Chinese University of Hong Kong, priority 2002, dated 2006)
